{"source": "patent US12699083B2", "about": "“Device for continuous measurement of cardiac activity” (The Hospital for Sick Children, priority 2018, dated 2026)", "key": {"single hiPSC-CM": {"tested_on": "single hiPSC-CM", "details": "0.1 μM of OM, TFFB; cited from earlier work"}, "hiPSC-CM monolayers": {"tested_on": "hiPSC-CM monolayers", "experiment": "Drug test on hiPSC-CM monolayers cultured on CNT-PDMS device arrays (contractile stress, beating rate, beating rhythm from CNT sensor resistance)", "type": "cell-based, human", "protocol": "Once after hiPSC-CMs were seeded, the device array 10 was placed in a humidified 37° C. incubator with 5% CO2, and the electrical signal of the CNT sensors started to be recorded. A constant voltage of 2.5 V was applied to the CNT-PDMS sensors, and sensor signals were recorded with a sampling frequency of 10 Hz.\nDrug stocks were kept at 4° C. prior to use. Drug tests were performed on hiPSC-CM monolayers during culture days between 10 and 14. […] After each drug addition, cells were incubated for 10 hours for each dose before CNT sensor signals were recorded to reflect the drug effect.\nEach set of data was from 3 to 6 experiment repeats and presented as values of the mean and the standard error of the mean. For differential analysis, all statistics of recorded data was processed using Student's t-test with levels of 0.05, 0.1 when they were compared to the control group. All data sets passed Shapiro-Wilk normality tests and equal variance tests.\nThe contractile stress generated by cardiomyocytes monolayer during synchronous systole was calculated from the experimentally measured data (i.e., CNT sensor's electrical resistance change)."}}, "data": [{"smiles": "COC(=O)N1CCN(Cc2cccc(NC(=O)Nc3ccc(C)nc3)c2F)CC1", "note": "[OM, Omecamtiv mecarbil]", "values": [{"measurement": "Contractility generated by a single cardiomyocyte increased by", "setting": "single hiPSC-CM", "result": 16.7, "unit": "%"}, {"measurement": "contractile stress increase by", "setting": "hiPSC-CM monolayers; 20 nM (0.02 μM) OM", "result": 76, "unit": "%"}, {"measurement": "contractile stress", "setting": "hiPSC-CM monolayers; 20 nM (0.02 μM) OM, n=3, p<0.05, before 2.25±0.11 kPa", "result": "3.96±0.40", "unit": "kPa"}, {"measurement": "amplitude of ΔR/R0", "setting": "hiPSC-CM monolayers; 20 nM OM, n=3, p<0.05, before 1.69×10^−2±8.46×10^−4", "result": "2.98×10^−2±2.97×10^−3"}, {"measurement": "beating rate", "setting": "hiPSC-CM monolayers; 20 nM OM, n=3, p>0.1, control 1.11±0.25 Hz", "result": "1.13±0.31", "unit": "Hz"}]}, {"smiles": "CC(C)NCC(O)c1ccc(O)c(O)c1", "note": "(centres unmarked) [Isoproterenol]", "values": [{"measurement": "beating rate increased by", "setting": "hiPSC-CM monolayers; 2.00 μM isoproterenol", "result": 13.6, "unit": "%"}, {"measurement": "Contractile stress increased by", "setting": "hiPSC-CM monolayers; 2.00 μM isoproterenol vs control", "result": 69.4, "unit": "%"}, {"measurement": "beating rate", "setting": "hiPSC-CM monolayers; 2.00 μM isoproterenol, n=3, p<0.05, control 1.17±0.068 Hz", "result": "1.33±0.081", "unit": "Hz"}, {"measurement": "contractile stress", "setting": "hiPSC-CM monolayers; 2.00 μM isoproterenol, n=3, control 2.34±0.093 kPa", "result": "3.963±0.532", "unit": "kPa"}]}, {"smiles": "COc1ccc(CCN(C)CCCC(C#N)(c2ccc(OC)c(OC)c2)C(C)C)cc1OC", "note": "(centres unmarked) [Verapamil]", "values": [{"measurement": "contractile stress", "setting": "hiPSC-CM monolayers; 0.20 μM Verapamil, n=3, before 2.34±9.31×10^−2 kPa", "result": "1.15±1.31×10^−1 kPa"}]}, {"smiles": "Cc1cccc(CCN2CCC(C(=O)c3ccc(NS(C)(=O)=O)cc3)CC2)n1", "note": "[E-4031]", "values": [{"measurement": "contractile stress", "setting": "hiPSC-CM monolayers; 0.10 μM E-4031, n=3", "result": "2.47±0.48", "unit": "kPa"}, {"measurement": "contractile stress", "setting": "hiPSC-CM monolayers; 0.60 μM E-4031, n=3, p>0.1", "result": "2.39±1.38", "unit": "kPa"}]}, {"smiles": "COc1cc2c(cc1OC)CC(=O)N(CCCN(C)C[C@H]1Cc3cc(OC)c(OC)cc31)CC2", "note": "[Ivabradine]", "values": [{"measurement": "beating rate", "setting": "hiPSC-CM monolayers; 10.00 μM Ivabradine, n=3, p<0.05, before 1.16±0.32 Hz", "result": "0.81±0.30", "unit": "Hz"}, {"measurement": "contractile stress", "setting": "hiPSC-CM monolayers; 10.00 μM Ivabradine, n=3, p>0.1, before 2.26±0.43 kPa", "result": "2.00±0.68", "unit": "kPa"}]}]}
